Test results published in publication doi:10.1101/2023.10.03.560722, “Drug Discovery in Low Data Regimes: Leveraging a Computational Pipeline for the Discovery of Novel SARS-CoV-2 Nsp14-MTase Inhibitors” (bioRxiv, 2024).
Where two headings read alike, the source gives them in different places.

How the values were obtained:
Format in all cases: biochemical
SUV420H1 = SUV420H1 (Homo sapiens, UniProt Q4FZB7); experiment: human MTase selectivity panel
NSD1 = NSD1 (Homo sapiens, UniProt Q96L73); experiment: human MTase selectivity panel
SETD8 = molecular target: T1, SETD8 (Homo sapiens, UniProt Q9NQR1); experiment: human MTase selectivity panel
T1 sequence (Q9NQR1 1-393): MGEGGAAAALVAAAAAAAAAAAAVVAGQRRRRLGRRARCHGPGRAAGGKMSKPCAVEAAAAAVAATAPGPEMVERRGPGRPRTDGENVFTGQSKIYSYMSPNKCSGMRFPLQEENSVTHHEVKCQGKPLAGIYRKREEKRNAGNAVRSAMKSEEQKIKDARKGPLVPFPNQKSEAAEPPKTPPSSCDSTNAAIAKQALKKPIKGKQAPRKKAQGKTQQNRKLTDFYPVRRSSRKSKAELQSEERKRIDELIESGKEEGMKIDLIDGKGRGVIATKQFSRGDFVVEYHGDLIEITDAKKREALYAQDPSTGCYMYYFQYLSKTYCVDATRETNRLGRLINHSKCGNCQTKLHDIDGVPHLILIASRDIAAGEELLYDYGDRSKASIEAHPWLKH

MLL1 = MLL1 (Homo sapiens, UniProt Q03164); experiment: human MTase selectivity panel
SUV39H1 = molecular target: T2, SUV39H1 (Homo sapiens, UniProt O43463); experiment: human MTase selectivity panel
T2 sequence (O43463 1-412): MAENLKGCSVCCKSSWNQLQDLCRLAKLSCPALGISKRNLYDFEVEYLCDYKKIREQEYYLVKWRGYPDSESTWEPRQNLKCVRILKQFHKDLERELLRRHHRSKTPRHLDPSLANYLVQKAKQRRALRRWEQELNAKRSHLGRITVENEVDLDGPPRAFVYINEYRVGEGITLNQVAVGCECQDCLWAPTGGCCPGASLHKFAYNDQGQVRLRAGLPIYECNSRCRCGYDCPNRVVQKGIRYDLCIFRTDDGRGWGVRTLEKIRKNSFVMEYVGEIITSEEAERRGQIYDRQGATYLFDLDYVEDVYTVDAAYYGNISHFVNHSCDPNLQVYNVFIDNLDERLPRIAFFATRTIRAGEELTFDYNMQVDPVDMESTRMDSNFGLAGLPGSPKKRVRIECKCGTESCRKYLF

SARS-CoV-2 nsp14 MTase = SARS-CoV-2 nsp14 MTase (Severe acute respiratory syndrome coronavirus 2, UniProt P0DTD1); experiment: biochemical
SMYD2 = SMYD2 (Homo sapiens, UniProt Q9NRG4); experiment: human MTase selectivity panel
PRMT5 = PRMT5 (Homo sapiens, UniProt O14744); experiment: human MTase selectivity panel
PRMT4 = molecular target: T3, PRMT4 (Homo sapiens, UniProt Q86X55); experiment: human MTase selectivity panel
T3 sequence (Q86X55 1-608): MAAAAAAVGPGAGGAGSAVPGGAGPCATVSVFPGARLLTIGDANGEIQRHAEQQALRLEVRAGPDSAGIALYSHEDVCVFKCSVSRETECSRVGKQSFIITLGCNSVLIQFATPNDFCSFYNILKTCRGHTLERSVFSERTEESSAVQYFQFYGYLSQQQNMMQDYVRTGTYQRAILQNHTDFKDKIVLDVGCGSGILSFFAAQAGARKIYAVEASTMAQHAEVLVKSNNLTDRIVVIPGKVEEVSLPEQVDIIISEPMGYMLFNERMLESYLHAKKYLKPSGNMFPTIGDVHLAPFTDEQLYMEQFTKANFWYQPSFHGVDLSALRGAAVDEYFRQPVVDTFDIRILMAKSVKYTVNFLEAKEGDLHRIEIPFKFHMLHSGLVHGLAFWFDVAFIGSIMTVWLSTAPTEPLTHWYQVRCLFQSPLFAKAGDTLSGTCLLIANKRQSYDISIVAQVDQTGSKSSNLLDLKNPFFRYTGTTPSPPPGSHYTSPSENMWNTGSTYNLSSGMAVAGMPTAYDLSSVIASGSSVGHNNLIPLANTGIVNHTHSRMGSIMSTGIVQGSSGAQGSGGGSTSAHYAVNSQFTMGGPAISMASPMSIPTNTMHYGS

EZH2 = EZH2 (Homo sapiens, UniProt Q15910); experiment: human MTase selectivity panel
PRMT3 = PRMT3 (Homo sapiens, UniProt O60678); experiment: human MTase selectivity panel
[1] = average ± SD, read-out: Activity (%) at 10 µM Average
[2] = read-out: Activity (%) at 10 µM Replicate 1
[3] = read-out: Activity (%) at 10 µM Replicate 2
[4] = read-out: Activity (%) at 10 µM Replicate 3

Sequence of SUV420H1 (Q4FZB7 whole entry): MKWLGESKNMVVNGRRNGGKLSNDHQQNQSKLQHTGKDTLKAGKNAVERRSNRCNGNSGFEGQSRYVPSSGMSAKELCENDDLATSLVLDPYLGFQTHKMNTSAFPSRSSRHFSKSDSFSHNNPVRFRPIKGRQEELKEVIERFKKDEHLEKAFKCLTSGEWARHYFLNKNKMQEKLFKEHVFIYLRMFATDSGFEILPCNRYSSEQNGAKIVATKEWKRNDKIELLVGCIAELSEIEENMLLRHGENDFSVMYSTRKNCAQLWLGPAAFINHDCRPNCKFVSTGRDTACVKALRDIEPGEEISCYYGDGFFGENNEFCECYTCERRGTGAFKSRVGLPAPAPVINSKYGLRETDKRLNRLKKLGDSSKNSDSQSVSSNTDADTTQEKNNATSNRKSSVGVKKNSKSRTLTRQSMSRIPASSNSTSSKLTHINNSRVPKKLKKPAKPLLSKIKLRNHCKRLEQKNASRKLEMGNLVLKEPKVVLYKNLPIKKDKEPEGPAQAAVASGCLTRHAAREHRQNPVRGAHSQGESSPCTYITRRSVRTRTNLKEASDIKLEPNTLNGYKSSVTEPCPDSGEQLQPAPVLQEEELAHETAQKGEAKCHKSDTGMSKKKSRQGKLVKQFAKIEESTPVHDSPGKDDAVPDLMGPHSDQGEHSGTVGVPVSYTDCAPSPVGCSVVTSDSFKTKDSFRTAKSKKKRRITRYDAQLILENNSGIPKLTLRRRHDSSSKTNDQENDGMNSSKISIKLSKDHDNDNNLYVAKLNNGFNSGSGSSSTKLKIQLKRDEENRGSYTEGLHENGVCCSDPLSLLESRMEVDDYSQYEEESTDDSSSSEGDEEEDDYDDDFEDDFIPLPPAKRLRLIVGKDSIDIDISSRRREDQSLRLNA
Sequence of PRMT5 (O14744 whole entry): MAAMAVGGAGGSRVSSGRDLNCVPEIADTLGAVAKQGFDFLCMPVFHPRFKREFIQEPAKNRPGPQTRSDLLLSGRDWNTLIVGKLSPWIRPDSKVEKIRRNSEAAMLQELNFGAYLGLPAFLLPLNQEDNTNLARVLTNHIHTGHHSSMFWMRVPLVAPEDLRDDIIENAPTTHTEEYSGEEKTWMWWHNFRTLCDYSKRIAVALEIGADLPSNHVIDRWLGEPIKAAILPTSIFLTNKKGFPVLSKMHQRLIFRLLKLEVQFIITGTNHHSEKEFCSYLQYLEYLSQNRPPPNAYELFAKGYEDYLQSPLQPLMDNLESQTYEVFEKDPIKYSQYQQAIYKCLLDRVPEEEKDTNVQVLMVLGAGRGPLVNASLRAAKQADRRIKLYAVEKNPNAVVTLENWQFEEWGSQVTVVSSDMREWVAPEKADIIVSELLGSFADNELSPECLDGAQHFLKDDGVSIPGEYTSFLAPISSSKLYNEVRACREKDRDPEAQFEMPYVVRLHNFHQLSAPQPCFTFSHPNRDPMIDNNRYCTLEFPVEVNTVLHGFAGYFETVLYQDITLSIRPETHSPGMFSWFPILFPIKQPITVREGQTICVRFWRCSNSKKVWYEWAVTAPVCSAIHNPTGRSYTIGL
Sequence of PRMT5 (Q9BQA1 whole entry partner): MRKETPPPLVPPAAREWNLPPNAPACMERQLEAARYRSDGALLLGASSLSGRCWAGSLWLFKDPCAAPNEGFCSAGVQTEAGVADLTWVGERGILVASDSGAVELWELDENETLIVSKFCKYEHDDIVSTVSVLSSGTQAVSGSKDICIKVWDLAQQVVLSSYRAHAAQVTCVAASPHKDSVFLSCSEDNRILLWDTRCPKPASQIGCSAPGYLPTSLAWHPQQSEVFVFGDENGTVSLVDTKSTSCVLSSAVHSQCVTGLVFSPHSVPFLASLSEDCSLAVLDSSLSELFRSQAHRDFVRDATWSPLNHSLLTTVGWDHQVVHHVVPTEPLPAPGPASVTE
Sequence of EZH2 (Q15910 whole entry): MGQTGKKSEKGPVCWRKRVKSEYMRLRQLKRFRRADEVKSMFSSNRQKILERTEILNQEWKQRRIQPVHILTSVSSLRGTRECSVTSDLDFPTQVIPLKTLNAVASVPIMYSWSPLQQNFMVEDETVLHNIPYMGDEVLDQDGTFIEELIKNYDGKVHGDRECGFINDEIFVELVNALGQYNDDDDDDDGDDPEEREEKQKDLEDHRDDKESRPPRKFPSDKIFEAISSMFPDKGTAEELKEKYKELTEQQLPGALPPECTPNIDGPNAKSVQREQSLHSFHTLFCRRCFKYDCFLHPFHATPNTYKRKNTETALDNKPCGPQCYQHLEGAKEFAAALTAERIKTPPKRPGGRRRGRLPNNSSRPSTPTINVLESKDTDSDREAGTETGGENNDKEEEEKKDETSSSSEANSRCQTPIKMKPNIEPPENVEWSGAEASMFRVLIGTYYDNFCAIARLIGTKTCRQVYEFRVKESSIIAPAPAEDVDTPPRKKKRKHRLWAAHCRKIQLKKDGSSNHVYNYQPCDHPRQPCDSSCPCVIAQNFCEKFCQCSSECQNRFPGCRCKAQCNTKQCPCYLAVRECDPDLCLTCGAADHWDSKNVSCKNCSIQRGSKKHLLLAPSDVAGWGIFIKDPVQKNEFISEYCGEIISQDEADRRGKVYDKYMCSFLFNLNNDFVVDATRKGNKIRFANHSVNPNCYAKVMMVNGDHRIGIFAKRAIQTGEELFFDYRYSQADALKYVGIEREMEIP
Sequence of EZH2 (O75530 whole entry partner): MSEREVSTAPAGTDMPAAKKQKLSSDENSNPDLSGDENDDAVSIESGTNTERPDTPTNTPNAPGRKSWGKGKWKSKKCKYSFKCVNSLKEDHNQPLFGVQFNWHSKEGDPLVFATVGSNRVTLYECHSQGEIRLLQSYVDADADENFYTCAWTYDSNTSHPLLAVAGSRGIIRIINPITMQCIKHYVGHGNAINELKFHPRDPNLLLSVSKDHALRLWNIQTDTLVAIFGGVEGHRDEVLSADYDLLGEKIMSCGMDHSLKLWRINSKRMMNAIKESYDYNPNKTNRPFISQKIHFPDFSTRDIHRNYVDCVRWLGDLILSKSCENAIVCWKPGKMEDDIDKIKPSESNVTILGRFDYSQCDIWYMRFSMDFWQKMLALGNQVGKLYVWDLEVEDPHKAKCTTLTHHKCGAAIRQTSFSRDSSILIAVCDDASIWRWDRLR
Sequence of EZH2 (Q15022 whole entry partner): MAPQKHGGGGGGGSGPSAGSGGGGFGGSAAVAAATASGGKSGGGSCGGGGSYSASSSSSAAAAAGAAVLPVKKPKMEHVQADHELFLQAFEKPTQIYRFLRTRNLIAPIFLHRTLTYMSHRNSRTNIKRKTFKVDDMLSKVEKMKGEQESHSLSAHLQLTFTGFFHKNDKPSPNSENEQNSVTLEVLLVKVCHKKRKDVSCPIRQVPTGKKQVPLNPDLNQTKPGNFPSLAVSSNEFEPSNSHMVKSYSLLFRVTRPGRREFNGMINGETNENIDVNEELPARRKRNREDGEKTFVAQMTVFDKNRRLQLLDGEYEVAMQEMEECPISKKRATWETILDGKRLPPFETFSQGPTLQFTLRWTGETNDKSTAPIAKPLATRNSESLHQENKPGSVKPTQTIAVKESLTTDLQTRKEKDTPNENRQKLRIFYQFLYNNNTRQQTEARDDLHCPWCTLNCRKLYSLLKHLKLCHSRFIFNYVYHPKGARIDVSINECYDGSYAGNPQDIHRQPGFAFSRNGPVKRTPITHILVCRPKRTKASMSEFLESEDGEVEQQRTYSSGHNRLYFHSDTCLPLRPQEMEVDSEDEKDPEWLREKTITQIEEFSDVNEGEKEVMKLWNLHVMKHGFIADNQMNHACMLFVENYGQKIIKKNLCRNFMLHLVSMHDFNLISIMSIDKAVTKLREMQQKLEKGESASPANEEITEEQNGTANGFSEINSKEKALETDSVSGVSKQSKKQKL
Sequence of SMYD2 (Q9NRG4 whole entry): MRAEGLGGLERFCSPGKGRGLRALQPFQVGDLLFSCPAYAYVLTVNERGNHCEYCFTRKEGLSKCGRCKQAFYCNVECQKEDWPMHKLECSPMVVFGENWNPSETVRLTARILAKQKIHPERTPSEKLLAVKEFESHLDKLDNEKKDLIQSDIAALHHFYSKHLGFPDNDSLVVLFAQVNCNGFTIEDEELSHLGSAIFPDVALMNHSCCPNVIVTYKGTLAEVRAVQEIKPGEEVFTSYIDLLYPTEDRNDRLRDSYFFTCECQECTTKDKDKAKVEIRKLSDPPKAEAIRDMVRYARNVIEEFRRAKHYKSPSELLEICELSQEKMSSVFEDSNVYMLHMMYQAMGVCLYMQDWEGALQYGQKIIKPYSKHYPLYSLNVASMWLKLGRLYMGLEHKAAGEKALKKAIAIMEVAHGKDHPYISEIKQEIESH
Sequence of PRMT3 (O60678 whole entry): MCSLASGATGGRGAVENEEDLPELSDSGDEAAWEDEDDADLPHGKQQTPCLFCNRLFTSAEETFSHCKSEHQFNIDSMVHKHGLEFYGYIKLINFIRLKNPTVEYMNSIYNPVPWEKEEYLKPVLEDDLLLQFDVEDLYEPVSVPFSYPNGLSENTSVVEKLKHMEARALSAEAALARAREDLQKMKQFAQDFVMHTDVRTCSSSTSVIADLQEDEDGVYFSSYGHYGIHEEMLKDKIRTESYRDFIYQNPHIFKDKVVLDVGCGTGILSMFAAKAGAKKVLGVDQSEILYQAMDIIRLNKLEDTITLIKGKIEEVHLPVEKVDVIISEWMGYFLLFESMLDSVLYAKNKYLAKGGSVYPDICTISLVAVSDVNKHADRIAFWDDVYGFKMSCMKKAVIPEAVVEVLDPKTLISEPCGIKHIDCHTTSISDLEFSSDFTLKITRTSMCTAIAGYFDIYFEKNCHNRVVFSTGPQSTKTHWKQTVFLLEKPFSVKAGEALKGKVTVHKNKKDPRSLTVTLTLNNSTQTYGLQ

Nc1ncnc2c1ncn2[C@@H]1O[C@H](CSCc2ccc(Cl)cc2)[C@@H](O)[C@H]1O [NSC620333]
activity at 10 µM (SUV420H1; [1]): 93 ± 8% | activity at 10 µM (SUV420H1; [2]): 84% | activity at 10 µM (SUV420H1; [3]): 97% | activity at 10 µM (SUV420H1; [4]): 98% | activity at 10 µM (NSD1; [1]): 104 ± 2% | activity at 10 µM (NSD1; [2]): 103% | activity at 10 µM (NSD1; [3]): 102% | activity at 10 µM (NSD1; [4]): 107% | activity at 10 µM (SETD8; [1]): 85 ± 6% | activity at 10 µM (SETD8; [2]): 79% | activity at 10 µM (SETD8; [3]): 90% | activity at 10 µM (SETD8; [4]): 86% | activity at 10 µM (MLL1; [1]): 85 ± 2% | activity at 10 µM (MLL1; [2]): 84% | activity at 10 µM (MLL1; [3]): 87% | activity at 10 µM (MLL1; [4]): 84% | activity at 10 µM (SUV39H1; [1]): 96 ± 4% | activity at 10 µM (SUV39H1; [2]): 99% | activity at 10 µM (SUV39H1; [3]): 91% | activity at 10 µM (SUV39H1; [4]): 97% | IC50 (SARS-CoV-2 nsp14 MTase; IC50 (µM), nsp14 MTase activity, high-throughput screening follow-up): 5 µM | IC50 (SARS-CoV-2 nsp14 MTase; IC50, at Km of both SAM and RNA substrates, mean ± SD, n = 3): 5.3 ± 1 µM | mechanism of action with respect to RNA substrate (SARS-CoV-2 nsp14 MTase; IC50 at varying RNA (31 to 500 nM), fixed SAM 1.25 µM): noncompetitive | mechanism of action with respect to SAM (SARS-CoV-2 nsp14 MTase; IC50 at varying SAM (0.15 to 2.5 µM), fixed RNA 0.25 µM): SAM competitive | inhibition of nsp14, batch retesting (SARS-CoV-2 nsp14 MTase; custom-ordered, highly purified (>99%) sample): more pronounced inhibition | inhibition at 100 µM (SARS-CoV-2 nsp14 MTase; read-out: nsp14 Inhibition % (100µM) Exp 1): 100% | inhibition at 100 µM (SARS-CoV-2 nsp14 MTase; read-out: nsp14 Inhibition % (100µM) Exp 2): 99% | activity at 10 µM (SMYD2; [1]): 105 ± 8% | activity at 10 µM (SMYD2; [2]): 104% | activity at 10 µM (SMYD2; [3]): 114% | activity at 10 µM (SMYD2; [4]): 99% | activity at 10 µM (PRMT5; [1]): 63 ± 7% | activity at 10 µM (PRMT5; [2]): 69% | activity at 10 µM (PRMT5; [3]): 64% | activity at 10 µM (PRMT5; [4]): 55% | activity at 10 µM (PRMT4; [1]): 97 ± 3% | activity at 10 µM (PRMT4; [2]): 96% | activity at 10 µM (PRMT4; [3]): 95% | activity at 10 µM (PRMT4; [4]): 101% | activity at 10 µM (EZH2; [1]): 96 ± 5% | activity at 10 µM (EZH2; [2]): 101% | activity at 10 µM (EZH2; [3]): 90% | activity at 10 µM (EZH2; [4]): 98% | activity at 10 µM (PRMT3; [1]): 79 ± 5% | activity at 10 µM (PRMT3; [2]): 75% | activity at 10 µM (PRMT3; [3]): 78% | activity at 10 µM (PRMT3; [4]): 85%
